Results taken from PubChem BioAssay (NCI).
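Assay format: 96-well plates, 48-hour exposure. Here, GI50 denotes the concentration required for 50% inhibition of growth. TGI: total growth inhibition.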

Columns and labels:
Assay in all cases: NCI tumour cell line growth inhibition, 48 h
[1] = test system: 786-0 renal
[2] = test system: A498 renal
[3] = test system: A549 NSCLC
[4] = test system: ACHN renal
[5] = test system: CAKI-1 renal
[6] = test system: CCRF-CEM leukemia
[7] = test system: COLO 205 colon
[8] = test system: DU-145 prostate
[9] = test system: EKVX NSCLC
[10] = test system: HL-60(TB) leukemia
[11] = test system: KM12 colon
[12] = test system: MDA-MB-435
[13] = test system: MOLT-4 leukemia
[14] = test system: NCI-H226 lung
[15] = test system: OVCAR-3 ovarian
[16] = test system: OVCAR-4 ovarian
[17] = test system: OVCAR-5 ovarian
[18] = test system: RPMI-8226 leukemia
[19] = test system: SK-MEL-28 melanoma
[20] = test system: SK-OV-3 ovarian
[21] = test system: SN12C renal
[22] = test system: SNB-19 CNS
[23] = test system: SW-620 colon
[24] = test system: TK-10 renal
[25] = test system: BT-549 breast
[26] = test system: HCT-15 colon
[27] = test system: HOP-62 NSCLC
[28] = test system: HOP-92 NSCLC
[29] = test system: IGROV1 ovarian
[30] = test system: K-562 leukemia
[31] = test system: LOX IMVI melanoma
[32] = test system: M14 melanoma
[33] = test system: MALME-3M melanoma
[34] = test system: MCF7 breast
[35] = test system: NCI-H23 lung
[36] = test system: RXF 393 renal
[37] = test system: SF-268 CNS
[38] = test system: SF-295 CNS
[39] = test system: SF-539 CNS
[40] = test system: SK-MEL-5 melanoma
[41] = test system: SR leukemia
[42] = test system: U251 CNS
[43] = test system: UACC-257 melanoma
[44] = test system: UACC-62 melanoma
[45] = test system: UO-31 renal
[46] = test system: HCT-116 colon
[47] = test system: HS 578T breast
[48] = test system: HT29 colon
[49] = test system: MDA-MB-231 breast
[50] = test system: NCI-H460 lung
[51] = test system: NCI-H522 lung
[52] = test system: NCI/ADR-RES ovarian
[53] = test system: OVCAR-8 ovarian
[54] = test system: PC-3 prostate
[55] = test system: SNB-75 CNS
[56] = test system: T-47D breast

Molecule `CN(C)c1ccc(/C=c2/c3ccccc3n3c2cc(C24CC5CC(CC(C5)C2)C4)[n+]3C)cc1` has a TGI [1] of 0.658 µM, a TGI [2] of 1.08 µM and a TGI [3] of 1.09 µM. The TGI [4] was 1.23 µM, the TGI [5] was 1.04 µM and the TGI [6] was greater than 100 µM. For the same molecule, the TGI [7] was 0.32 µM, the TGI [8] was 1.84 µM and the TGI [9] was 1.58 µM. The TGI [10] was 0.666 µM, the TGI [11] was 0.405 µM and the TGI [12] was 0.694 µM. The TGI [13] was greater than 100 µM, the TGI [14] was 1.49 µM and the TGI [15] was 1.6 µM. The TGI [16] was 0.731 µM, the TGI [17] was 1.61 µM and the TGI [18] was greater than 100 µM. It also gave a TGI [19] of 2.16 µM, a TGI [20] of 1.48 µM and a TGI [21] of 1.12 µM. It also gave a TGI [22] of 1.36 µM, a TGI [23] of 1.44 µM and a TGI [24] of 1.65 µM.
Molecule `COc1cc([C@@H]2c3cc4c(cc3C[C@@H]3COC(=O)C32)OCO4)cc(OC)c1O` (some centres not stated) has a TGI [2] greater than 100 µM, a TGI [3] greater than 93.4 µM and a TGI [4] of 23.5 µM. It also gave a TGI [25] greater than 100 µM, a TGI [5] of 0.823 µM and a TGI [6] of 0.0526 µM. It also gave a TGI [7] of 0.0933 µM, a TGI [26] greater than 100 µM and a TGI [27] of 24.3 µM. It also gave a TGI [28] of 34.9 µM, a TGI [29] of 0.0791 µM and a TGI [30] greater than 100 µM. The TGI [11] was greater than 100 µM, the TGI [31] was 15.7 µM and the TGI [32] was greater than 100 µM. The TGI [33] was 0.07 µM, the TGI [34] was 0.071 µM and the TGI [14] was greater than 59.9 µM. It also gave a TGI [35] greater than 100 µM, a TGI [18] of 0.137 µM and a TGI [36] of 0.0635 µM. It also gave a TGI [37] greater than 32.6 µM, a TGI [38] of 0.0585 µM and a TGI [39] of 0.0443 µM. The TGI [40] was 1.04 µM, the TGI [20] was 2.47 µM and the TGI [21] was greater than 77.4 µM. For the same molecule, the TGI [41] was 0.0503 µM, the TGI [23] was greater than 100 µM and the TGI [24] was greater than 100 µM. The TGI [42] was greater than 100 µM, the TGI [43] was greater than 100 µM and the TGI [44] was greater than 52.1 µM. For the same molecule, the TGI [45] was greater than 100 µM.
`COc1ccc(-c2ccc(-c3ccc(C(=N)N)s3)s2)cc1Cl` was tested, and the GI50 [2] was 1.29 µM, the TGI [2] was 2.6 µM and the GI50 [6] was 1.81 µM. For the same molecule, the TGI [6] was 4.72 µM, the GI50 [38] was 1.8 µM and the TGI [38] was 3.3 µM. For the same molecule, the GI50 [40] was 1.88 µM, the TGI [40] was 3.52 µM and the GI50 [41] was 0.299 µM. The TGI [41] was 1.34 µM.
In the case of `COc1ccc(-c2ccc(/C=N/n3c(COc4ccc(Cl)cc4Cl)nn(CN4CCN(C)CC4)c3=S)o2)c([N+](=O)[O-])c1`, the GI50 [1] is reported as 21.4 µM, the TGI [1] is reported as greater than 100 µM and the GI50 [2] is reported as 2.28 µM. For the same molecule, the TGI [2] was 5.1 µM, the GI50 [3] was 20.8 µM and the TGI [3] was greater than 100 µM. The GI50 [4] was 21.9 µM, the TGI [4] was 55.7 µM and the GI50 [5] was 16.8 µM. For the same molecule, the TGI [5] was 37.3 µM, the GI50 [6] was 14.3 µM and the TGI [6] was 47 µM. The GI50 [7] was 29.3 µM, the TGI [7] was greater than 100 µM and the GI50 [8] was 17.1 µM. It also gave a TGI [8] greater than 100 µM, a GI50 [46] of 16 µM and a TGI [46] of 29.5 µM. For the same molecule, the GI50 [26] was 17 µM, the TGI [26] was 35.4 µM and the GI50 [10] was 16.3 µM. For the same molecule, the TGI [10] was 43.9 µM, the GI50 [27] was 29.6 µM and the TGI [27] was 79.5 µM. It also gave a GI50 [47] of 37.8 µM, a TGI [47] greater than 100 µM and a GI50 [48] of 41.2 µM. The TGI [48] was greater than 100 µM, the GI50 [29] was 45 µM and the TGI [29] was greater than 100 µM. For the same molecule, the GI50 [30] was 22.2 µM, the TGI [30] was greater than 100 µM and the GI50 [11] was 15.1 µM. For the same molecule, the TGI [11] was 36.5 µM, the GI50 [31] was 11.4 µM and the TGI [31] was 25.2 µM. The GI50 [32] was 19.8 µM, the TGI [32] was 53.9 µM and the GI50 [34] was 10 µM. The TGI [34] was 29.8 µM, the GI50 [49] was 28.9 µM and the TGI [49] was greater than 100 µM. For the same molecule, the GI50 [12] was 15.9 µM, the TGI [12] was 37.5 µM and the GI50 [14] was 12.5 µM. The TGI [14] was 31 µM, the GI50 [35] was 13.3 µM and the TGI [35] was 30.6 µM. It also gave a GI50 [50] of 15 µM, a TGI [50] of 45.1 µM and a GI50 [51] of 44.5 µM. It also gave a TGI [51] greater than 100 µM, a GI50 [52] of 18.1 µM and a TGI [52] of 45.5 µM. For the same molecule, the GI50 [15] was 7.51 µM, the TGI [15] was 25 µM and the GI50 [16] was 59.7 µM. The TGI [16] was greater than 100 µM, the GI50 [17] was 24.2 µM and the TGI [17] was 97.1 µM. It also gave a GI50 [53] of 18.9 µM, a TGI [53] of 53.5 µM and a GI50 [54] of 17.6 µM. The TGI [54] was 76.8 µM, the GI50 [18] was 9.37 µM and the TGI [18] was 50 µM. For the same molecule, the GI50 [36] was 6.86 µM, the TGI [36] was 32.9 µM and the GI50 [37] was 24.8 µM. It also gave a TGI [37] greater than 100 µM, a GI50 [38] of 16.8 µM and a TGI [38] of 37.5 µM. The GI50 [19] was 47.8 µM, the TGI [19] was greater than 100 µM and the GI50 [20] was 30.8 µM. The TGI [20] was 80.7 µM, the GI50 [21] was 17.8 µM and the TGI [21] was 41.5 µM. The GI50 [22] was 35.2 µM, the TGI [22] was greater than 100 µM and the GI50 [55] was 67.5 µM. The TGI [55] was greater than 100 µM, the GI50 [41] was 31.1 µM and the TGI [41] was 96.1 µM. The GI50 [56] was 11.7 µM, the TGI [56] was 53.2 µM and the GI50 [24] was 2.43 µM. For the same molecule, the TGI [24] was 9.67 µM, the GI50 [42] was 16.9 µM and the TGI [42] was 42.8 µM. The GI50 [43] was 23.5 µM, the TGI [43] was 59.6 µM and the GI50 [45] was 26.7 µM. The TGI [45] was greater than 100 µM.
